Measurements taken from patent US8883793B2, “Tubulin inhibitors and methods of using the same” (Development Center for Biotechnology, priority 2010, dated 2014).

System: KB cell
Experiment: MTS assay, growth inhibition of KB cells
Type: cell-based
Conditions: Homo sapiens, at 10 μM concentration, incubated for 72 h, read-out: Inhibition rate (%) (growth inhibition rate of MTS assay)
Protocol: MTS assay was performed in determining the growth inhibition of cancer cells. MTS ((3-(4,5-dimethylthiazol-2-yl)-5-(3-carboxymethoxyphenyl)-2-(4-sulfophenyl)-2H-tetrazolium)), in the presence of phenazine methosulfate (PMS) and reductases, produces a formazan product that has an absorbance maximum at 490-500 nm. MTS assays (and closely related MTT assay) are commonly used to measure cell viabilities or survivals.
Briefly, KB/Hela, NCI-H460, A375, Colo205, HCT-116, U937, MCF-7, MDA-MB-231, A549, H1975 cells were seeded into 96-well plate at 4000, 4000, 2000, 2000, 2000 cells/well. After 24 h for attachment, test compound was added into each well and incubated for 72 h. A total of 20 μl of MTS reaction reagent containing the MTS (Promega, Madison, Wis.) and PMS in a ratio of 20:1 was added into each well to react with dehydrogenase enzyme in survival cells. After 3 h, the absorbance at 490 nm was monitored using Emax precision microplate reader (Molecular Devices, Sunnyvale, Calif.).
The growth inhibition rate of MTS assay at KB cell of these compounds (at 10 μM concentration) are list in Table 5.

In order of falling inhibition at 10 µM:
1. COc1cc(Cc2cnc(NC(=O)CCc3cccnc3)s2)cc(OC)c1OC [Compound 50, 3-Pyridin-3-yl-N-[5-(3,4,5-trimethoxy-benzyl)-thiazol-2-yl]-propionamide]  97.2%
2. Cc1ccc(CCC(=O)Nc2ncc(Cc3ccc4ccccc4c3)s2)o1 [Compound 21, 3-(5-Methyl-furan-2-yl)-N-(5-naphthalen-2-ylmethyl-thiazol-2-yl)-propionamide]  97.1%
3. COc1ccc(Cc2cnc(NC(=O)CCc3ccc(F)cc3)s2)cc1OC [Compound 18, N-[5-(3,4-Dimethoxy-benzyl)-thiazol-2-yl]-3-(4-fluoro-phenyl)-propionamide]  96.6%
4. COc1cccc(CCC(=O)Nc2ncc(Cc3ccc(OC)c(OC)c3)s2)c1 [Compound 29, N-[5-(3,4-Dimethoxy-benzyl)-thiazol-2-yl]-3-(3-methoxy-phenyl)-propionamide]  96.6%
5. COc1ccc(Cc2cnc(NC(=O)CCc3ccc(-c4ccccc4)cc3)s2)cc1 [Compound 51, 3-Biphenyl-4-yl-N-[5-(4-methoxy-benzyl)-thiazol-2-yl]-propionamide]  96.1%
6. O=C(CCc1cccnc1)Nc1ncc(Cc2ccc(C(F)(F)F)cc2)s1 [Compound 46, 3-Pyridin-3-yl-N-[5-(4-trifluoromethyl-benzyl)-thiazol-2-yl]-propionamide]  96%
7. O=C(CCc1ccc(F)cc1)Nc1ncc(Cc2ccc3ccccc3c2)s1 [Compound 23, 3-(4-Fluoro-phenyl)-N-(5-naphthalen-2-ylmethyl-thiazol-2-yl)-propionamide]  95.8%
8. COc1ccc(Cc2cnc(NC(=O)CCc3ccc(C)o3)s2)cc1OC [Compound 31, N-[5-(3,4-Dimethoxy-benzyl)-thiazol-2-yl]-3-(5-methyl-furan-2-yl)-propionamide]  95.8%
9. COc1cc(Cc2cnc(NC(=O)CCc3ccccc3)s2)ccc1OC(=O)OCc1ccccc1 [Compound 41, Carbonic acid benzyl ester 2-methoxy-4-[2-(3-phenyl-propionylamino)-thiazol-5-ylmethyl]-phenyl ester]  95.8%
10. O=C(CCc1ccccc1)Nc1ncc(Cc2ccc3ccccc3c2)s1 [Compound 22, N-(5-Naphthalen-2-ylmethyl-thiazol-2-yl)-3-phenyl-propionamide]  95.6%
11. COc1cccc(CCC(=O)Nc2ncc(Cc3ccc(OC(=O)OCc4ccccc4)c(OC)c3)s2)c1 [Compound 43, Carbonic acid benzyl ester 2-methoxy-4-{2-[3-(3-methoxy-phenyl)-propionylamino]-thiazol-5-ylmethyl}-phenyl ester]  95.6%
12. O=C(CCc1ccccc1)Nc1ncc(Cc2ccccc2)s1 [Compound 2, N-(5-Benzyl-thiazol-2-yl)-3-phenyl-propionamide]  95.5%
13. COc1cccc(CCC(=O)Nc2ncc(Cc3ccc(C(F)(F)F)cc3)s2)c1 [Compound 48, 3-(3-Methoxy-phenyl)-N-[5-(4-trifluoromethyl-benzyl)-thiazol-2-yl]-propionamide]  95.3%
14. O=C(CCc1cccnc1)Nc1ncc(Cc2ccc3ccccc3c2)s1 [Compound 24, N-(5-Naphthalen-2-ylmethyl-thiazol-2-yl)-3-pyridin-3-yl-propionamide]  95.2%
15. O=C(CCc1ccc(F)cc1)Nc1ncc(Cc2ccc(F)c(F)c2)s1 [Compound 28, N-[5-(3,4-Difluoro-benzyl)-thiazol-2-yl]-3-(4-fluoro-phenyl)-propionamide]  95%
16. O=C(CCc1cccc(F)c1)Nc1ncc(Cc2ccc3ccccc3c2)s1 [Compound 37, 3-(3-Fluoro-phenyl)-N-(5-naphthalen-2-ylmethyl-thiazol-2-yl)-propionamide]  94.4%
17. O=C(/C=C/c1ccccc1)Nc1ncc(Cc2ccccc2)s1 [Compound 3, N-(5-Benzyl-thiazol-2-yl)-3-phenyl-acrylamide]  94.3%
18. O=C(CCc1cccnc1)Nc1ncc(Cc2c(F)c(F)c(F)c(F)c2F)s1 [Compound 36, N-(5-Pentafluorophenylmethyl-thiazol-2-yl)-3-pyridin-3-yl-propionamide]  94.3%
19. O=C(CCc1ccccc1)Nc1ncc(Cc2ccc(F)c(F)c2)s1 [Compound 25, N-[5-(3,4-Difluoro-benzyl)-thiazol-2-yl]-3-phenyl-propionamide]  94.2%
20. COc1cccc(CCC(=O)Nc2ncc(Cc3ccc4ccccc4c3)s2)c1 [Compound 38, 3-(3-Methoxy-phenyl)-N-(5-naphthalen-2-ylmethyl-thiazol-2-yl)-propionamide]  94.2%
21. COc1ccc2cc(Cc3cnc(NC(=O)CCc4ccc(C)o4)s3)ccc2c1 [Compound 19, N-[5-(6-Methoxy-naphthalen-2-ylmethyl)-thiazol-2-yl]-3-(5-methyl-furan-2-yl)-propionamide]  94.1%
22. O=C(CCc1ccc(F)cc1)Nc1ncc(Cc2ccc(-c3ccccc3)cc2)s1 [Compound 39, N-(5-Biphenyl-4-ylmethyl-thiazol-2-yl)-3-(4-fluoro-phenyl)-propionamide]  94%
23. O=C(CCc1ccc(F)cc1)Nc1ncc(Cc2ccc(C(F)(F)F)cc2)s1 [Compound 45, 3-(4-Fluoro-phenyl)-N-[5-(4-trifluoromethyl-benzyl)-thiazol-2-yl]-propionamide]  94%
24. COc1ccc(CCC(=O)Nc2ncc(Cc3ccc(OC)c(OC)c3)s2)cc1 [Compound 20, N-[5-(3,4-Dimethoxy-benzyl)-thiazol-2-yl]-3-(4-methoxy-phenyl)-propionamide]  93.4%
25. COc1ccc(Cc2cnc(NC(=O)C(C)Cc3ccc(F)cc3)s2)cc1 (stereo not shown) [Compound 57, 3-(4-Fluoro-phenyl)-N-[5-(4-methoxy-benzyl)-thiazol-2-yl]-2-methyl-propionamide]  93.2%
26. COc1ccc(Cc2cnc(NC(=O)/C=C/c3ccc(C)o3)s2)cc1 [Compound 44, N-[5-(4-Methoxy-benzyl)-thiazol-2-yl]-3-(5-methyl-furan-2-yl)-acrylamide]  93.1%
27. COc1ccc(CCC(=O)Nc2ncc(Cc3ccc(OC)cc3)s2)cc1 [Compound 15, N-[5-(4-Methoxy-benzyl)-thiazol-2-yl]-3-(4-methoxy-phenyl)-propionamide]  93%
28. COc1cccc(CCC(=O)Nc2ncc(Cc3ccc(F)c(F)c3)s2)c1 [Compound 26, N-[5-(3,4-Difluoro-benzyl)-thiazol-2-yl]-3-(3-methoxy-phenyl)-propionamide]  92.9%
29. O=C(CCc1ccccc1)Nc1ncc(Cc2c(F)c(F)c(F)c(F)c2F)s1 [Compound 34, N-(5-Pentafluorophenylmethyl-thiazol-2-yl)-3-phenyl-propionamide]  92.8%
30. O=C(Nc1ncc(Cc2ccc3c(c2)OCO3)s1)OCc1ccccc1 [Compound 33, (5-Benzo[1,3]dioxol-5-ylmethyl-thiazol-2-yl)-carbamic acid benzyl ester]  92.4%
31. Cc1ccc(CCC(=O)Nc2ncc(Cc3ccc(F)c(F)c3)s2)o1 [Compound 30, N-[5-(3,4-Difluoro-benzyl)-thiazol-2-yl]-3-(5-methyl-furan-2-yl)-propionamide]  92.3%
32. O=C(CCc1ccc(F)cc1)Nc1ncc(Cc2ccc3c(c2)OCO3)s1 [Compound 7, N-(5-Benzo[1,3]dioxol-5-ylmethyl-thiazol-2-yl)-3-(4-fluoro-phenyl)-propionamide]  91.7%
33. O=C(CCc1cccnc1)Nc1ncc(Cc2ccc(F)c(F)c2)s1 [Compound 27, N-[5-(3,4-Difluoro-benzyl)-thiazol-2-yl]-3-pyridin-3-yl-propionamide]  91.2%
34. COc1cc(Cc2cnc(NC(=O)CCc3cccnc3)s2)ccc1OC(=O)OCc1ccccc1 [Compound 42, Carbonic acid benzyl ester 2-methoxy-4-[2-(3-pyridin-3-yl-propionylamino)-thiazol-5-ylmethyl]-phenyl ester]  91.2%
35. O=C(CCc1cccnc1)Nc1ncc(Cc2ccc3c(c2)OCO3)s1 [Compound 8, N-(5-Benzo[1,3]dioxol-5-ylmethyl-thiazol-2-yl)-3-pyridin-3-yl-propionamide]  90.6%
36. COc1cccc(CCC(=O)Nc2ncc(Cc3c(F)c(F)c(F)c(F)c3F)s2)c1 [Compound 35, 3-(3-Methoxy-phenyl)-N-(5-pentafluorophenylmethyl-thiazol-2-yl)-propionamide]  90.4%
37. COc1ccc2cc(Cc3cnc(NC(=O)CCc4ccccc4)s3)ccc2c1 [Compound 14, N-[5-(6-Methoxy-naphthalen-2-ylmethyl)-thiazol-2-yl]-3-phenyl-propionamide]  89.5%
38. COc1ccc(Cc2cnc(NC(=O)CCc3ccncc3)s2)cc1 [Compound 16, N-[5-(4-Methoxy-benzyl)-thiazol-2-yl]-3-pyridin-4-yl-propionamide]  62%
39. O=C(CCc1cccnc1)Nc1ncc(Cc2ccc(-c3ccccc3)cc2)s1 [Compound 40, N-(5-Biphenyl-4-ylmethyl-thiazol-2-yl)-3-pyridin-3-yl-propionamide]  58.8%
40. O=C(Nc1ncc(Cc2ccc(F)c(F)c2)s1)OCc1ccccc1 [Compound 32, [5-(3,4-Difluoro-benzyl)-thiazol-2-yl]-carbamic acid benzyl ester]  52.7%
